Test results published in ChEMBL document CHEMBL5360667, “Carboxylic Acid-Containing Indanyl Compounds as S1P5 Modulators for Treating Neurodegenerative Diseases” (ACS Med Chem Lett, 2023).

Molecular target: Sphingosine 1-phosphate receptor 5 (Homo sapiens) (UniProt Q9H228)
Assay: Agonist activity at recombinant S1P5 (unknown origin) expressed in CHO cell membranes assessed as increase in [35S]GTPgammaS binding preincubated for 30 mins followed by [35S]GTPgammaS addition and measured after 40 mins by microbeta scintillation counter analysis
Format: functional
Conditions: Membrane, filed as agonist, time 70.0 min

Sphingosine 1-phosphate receptor 5 (Homo sapiens), sequence (Q9H228 whole entry): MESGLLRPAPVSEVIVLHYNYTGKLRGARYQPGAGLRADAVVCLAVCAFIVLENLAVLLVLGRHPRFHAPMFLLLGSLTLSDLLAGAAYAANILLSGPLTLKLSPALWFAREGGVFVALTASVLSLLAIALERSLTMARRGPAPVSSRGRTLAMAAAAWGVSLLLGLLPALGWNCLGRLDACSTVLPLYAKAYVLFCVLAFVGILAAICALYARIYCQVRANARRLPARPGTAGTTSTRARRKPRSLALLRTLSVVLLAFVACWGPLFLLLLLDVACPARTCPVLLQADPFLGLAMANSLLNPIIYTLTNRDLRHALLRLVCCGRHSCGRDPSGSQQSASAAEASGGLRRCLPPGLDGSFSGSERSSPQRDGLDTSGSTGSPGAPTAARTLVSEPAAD

Row | EC | SMILES
1 | 1 nM | O=C(O)C1CN(C2CCc3cc(OCc4cc(F)c(F)cc4F)ccc32)C1 (stereo unspecified)
2 | 1 nM | CC(C)Oc1ccc(COc2ccc3c(c2)CCC3N2CC(C(=O)O)C2)cc1C(F)(F)F (stereo unspecified)
3 | < 1 nM | Cc1c(OCc2c(Cl)cccc2Cl)ccc2c1CCC2N1CCC(C(=O)O)CC1 (stereo unspecified)
4 | < 1 nM | O=C(O)C1CCN(C2CCc3c2ccc(OCc2c(Cl)cccc2Cl)c3F)CC1 (stereo unspecified)
5 | 1 nM | O=C(O)C1CN(C2CCc3cc(OCc4ccc(C5CC5)c(C(F)(F)F)c4)ccc32)C1 (stereo unspecified)
6 | < 1 nM | Cc1cc(OCc2c(Cl)cccc2Cl)cc2c1C(N1CCC(C(=O)O)CC1)CC2 (stereo unspecified)
